Tests used:
HCT-15/ADM2 = assay: XTT in vitro growth inhibition assay, HCT-15/ADM2; type: cell-based, human; conditions: IC50 of HCT-15/ADM2 divided by IC50 of parental HCT-15
HCT-15 = assay: XTT in vitro growth inhibition assay, parental HCT-15; type: cell-based, human; conditions: IC50 of subline divided by IC50 of parental cells; HCT-15 (parental, reference)
HCT-15/ADM2-2 = assay: XTT in vitro growth inhibition assay, HCT-15/ADM2-2; type: cell-based, human; conditions: IC50 of HCT-15/ADM2-2 divided by IC50 of parental HCT-15
HCT-15/ADM1 = assay: XTT in vitro growth inhibition assay, HCT-15/ADM1; type: cell-based, human; conditions: IC50 of HCT-15/ADM1 divided by IC50 of parental HCT-15
P-glycoprotein-ATPase = conditions: cited from earlier work
P-glycoprotein = conditions: cited from earlier work
leukemia = conditions: randomized trials, combination chemotherapy against leukemia; cited from earlier work
[1] = in contrast to cyclosporin A; cited from earlier work

Compound | Relative resistance (HCT-15/ADM2) | Relative resistance (HCT-15) | Relative resistance (HCT-15/ADM2-2) | Relative resistance (HCT-15/ADM1) | Inhibition of substrate-stimulated P-glycoprotein-ATPase activity (P-glycoprotein-ATPase) | Effect on binding of photoactive analogues of cyclosporin to P-glycoprotein (P-glycoprotein) | Complete remission rates or survival (leukemia) | Immunosuppressive activity [1]
O=C1c2c(O)ccc(O)c2C(=O)c2c(NCCNCCO)ccc(NCCNCCO)c21 [Mitoxantrone] | 5.40 | 1 | 3.12 | 1.42 |  |  |  | 
COc1cccc2c1C(=O)c1c(O)c3c(c(O)c1C2=O)C[C@@](O)(C(=O)CO)C[C@@H]3O[C@H]1C[C@H](N)[C@@H](O)[C@H](C)O1 [Epirubicin] | 3.34 | 1 | 4.33 | 1.58 |  |  |  | 
CC[C@]1(O)C[C@H]2CN(CCc3c([nH]c4ccccc34)[C@@](C(=O)OC)(c3cc4c(cc3OC)N(C=O)[C@H]3[C@@](O)(C(=O)OC)[C@H](OC(C)=O)[C@]5(CC)C=CCN6CC[C@]43[C@@H]65)C2)C1 [Vincristine] | 2.19 | 1 | 2.96 | 2.03 |  |  |  | 
[3′‐keto‐Bmt^1]‐[Val^2]‐cyclosporin [Valspodar] |  |  |  |  | more potent than cyclosporin A | inhibited | failed to improve | non-immunosuppressive
COc1cccc2c1C(=O)c1c(O)c3c(c(O)c1C2=O)C[C@@](O)(C(=O)CO)C[C@@H]3O[C@H]1C[C@H](N)[C@H](O)[C@H](C)O1 [Adriamycin] | 4.40 | 1 | 7.77 | 2.23 |  |  |  | 
COc1cc([C@@H]2c3cc4c(cc3[C@@H](O[C@@H]3O[C@@H]5CO[C@@H](C)O[C@H]5[C@H](O)[C@H]3O)[C@H]3COC(=O)[C@H]23)OCO4)cc(OC)c1O [Etoposide] | 2.55 | 1 | 3.16 | 2.27 |  |  |  | 
CO[C@@]12[C@H](COC(N)=O)C3=C(C(=O)C(C)=C(N)C3=O)N1C[C@@H]1N[C@@H]12 [Mitomycin C] | 1.77 | 1 | 0.26 | 0.80 |  |  |  | 
CC(=O)O[C@H]1C(=O)[C@@]2(C)[C@H]([C@H](OC(=O)c3ccccc3)[C@]3(O)C[C@H](OC(=O)[C@H](O)[C@@H](NC(=O)c4ccccc4)c4ccccc4)C(C)=C1C3(C)C)[C@]1(OC(C)=O)CO[C@@H]1C[C@@H]2O [Taxol, paclitaxel] | 2.63 | 1 | 4.81 | 2.81 |  |  |  | 

— publication PMC5926616 (Japanese Journal of Cancer Research : Gann, 2001)
